In the oligonucleotide strings, read from the 5' end, every base follows the letter of its sugar. An asterisk marks phosphorothioate; unmarked linkages are phosphodiester. Other units and linkages are bracketed, terminal groups are in braces. A string of capitals states the bases alone. {ET-GalNAc-T2CO} = code of the source, not defined here; {NH2C12} = code of the source, not defined here; {NHC6} = code of the source, not defined here; m = 2'-O-methyl; f = 2'-fluoro

The subject of the data set is hsHAO1 mRNA. The data set can be described thus: Dose-response of hsHAO1 targeting GalNAc-siRNAs in primary human hepatocytes, gymnotic free uptake, bDNA assay. It is filed as cell-based. The note with it: PHHs. On the procedure:
HepG2 cells were supplied by American Tissue Culture Collection (ATCC) (HB-8065, Lot #: 63176294) and cultured in ATCC-formulated Eagle's Minimum Essential Medium supplemented to contain 10% fetal calf serum (FCS). Primary human hepatocytes (PHHs) were sourced from Primacyt (Schwerin, Germany) (Lot #: CyHuf19009HEc). Cells are derived from a […] by explant technique. All cells used in this study were cultured at 37° C. in an atmosphere with 5% CO2 in a humidified incubator.
Dose response analysis in PHHs was done by direct incubation of cells in a gymnotic, free uptake setting starting with 1.5 μM highest final siRNA concentration, followed by 500 nM and from there on going serially down in twofold dilution steps.
Control wells were transfected into HepG2 cells or directly incubated with primary human hepatocytes at the highest test siRNA concentrations studied on the corresponding plate. All control siRNAs included in the different project phases next to mock treatment of cells are summarized and listed in Table 2. For each siRNA and control, at least four wells were transfected/directly incubated in parallel, and individual data points were collected from each well.
After 24 h of incubation with siRNA post-transfection, media was removed and HepG2 cells were lysed in Lysis Mixture (1 volume of lysis buffer plus 2 volumes of nuclease-free water) and then incubated at 53° C. for at least 45 minutes. In the case of PHHs, plating media was removed 5 h post treatment of cells followed by addition of 50 μl of complete maintenance medium per well. Media was exchanged in that way every 24 h up to a total incubation period of 72 h. At either 4 h or 72 h time point, cell culture supernatant was removed followed by addition of 200 μl of Lysis Mixture supplemented with 1:1000 v/v of Proteinase K.
The branched DNA (bDNA) assay was performed according to manufacturer's instructions. Luminescence was read using a 1420 Luminescence Counter (WALLAC VICTOR Light, Perkin Elmer, Rodgau-JMgesheim, Germany) following 30 minutes incubation in the presence of substrate in the dark. For each well, the on-target mRNA levels were normalized to the hsGAPDH mRNA levels. The activity of any siRNA was expressed as percent on-target mRNA concentration (normalized to hsGAPDH mRNA) in treated cells, relative to the mean on-target mRNA concentration (normalized to hsGAPDH mRNA) across control wells.
Following the identification of a suitable batch (CyHuf19009) of primary human hepatocytes (PHHs), a gymnotic, free uptake analysis was performed of hsHAO1 targeting GalNAc-siRNAs, listed in Table 1. The highest tested final siRNA concentration was 1.5 μM, followed by 500 nM, going down in eight two-fold serial dilution steps to the lowest final siRNA concentration of 1.95 nM. The experiments ended at 4 h and 72 h post direct incubation of PHH cells.

As to “ECX008: hsHAO1 GalNAc-siRNA, 3′-GalNAc T2a alternating, same sequences as ETX008, lower purity (sense fG*mA*fCmUfUmUfCmAfUmCfCmUfGmGfAmAfAmUfAmUfA-{NHC6}-{ET-GalNAc-T2CO}; antisense mU*fA*mUfAmUfUmUfCmCfAmGfGmAfUmGfAmAfAmGfUmC*fC*mA; further chemistry not given here)”, for the setting “4 h incubation”, the “Max. Inhib.” value worked out at 2.0%. For the setting “72 h incubation”, the IC20 came out at 0.0049 µM, the IC50 is 0.26 µM and the “Max. Inhib.” value was 58.1%.

As for “ETX002: hsHAO1 GalNAc-siRNA, 5′-GalNAc T2b inverted abasic; sense X91409, antisense X38483; linker + ligand as FIG. 21 (sense GACUUUCAUCCUGGAAAUAUA; antisense UAUAUUUCCAGGAUGAAAGUCCA; 5'-GalNAc, inverted abasic, 2'-F/OMe, PS; misc_feature 1..21 modified siRNA; misc_feature 1..23 modified siRNA)”, the “Max. Inhib.” value (4 h incubation) is 7.2%. For the same substance, where the note is “72 h incubation”, it took 0.0239 µM to reach the 20% level (IC20) and the “Max. Inhib.” value is 44.3%.

As to “ETX004: hsHAO1 GalNAc-siRNA, 5′-GalNAc T2b alternating; sense X91412, antisense X91398; linker + ligand as FIG. 21 (sense {ET-GalNAc-T2CO}-{NH2C12}-fGmAfCmUfUmUfCmAfUmCfCmUfGmGfAmAfAmUfA*mU*fA; antisense mU*fA*mUfAmUfUmUfCmCfAmGfGmAfUmGfAmAfAmGfUmC*fC*mA)”, the “Max. Inhib.” value (4 h incubation) is recorded as −2.3% and the “Max. Inhib.” value (72 h incubation) is 35.5%. Also, it took 0.0028 µM to reach the 20% level (72 h incubation) (IC20).

The term IC20 denotes the concentration at which the effect reaches the 20% level. By IC50 is commonly meant the concentration at which inhibition is half-maximal.
